Assay type: cell-based
From the text: • II The following assay results were obtained in an in vitro assay to test for inhibition of Trypanosoma (T) and Plasmodium (P) species.

**Q.** For “BHAlys31lys32(NHCSNHPhOP[O] [ONa]2)64 [BRI6181]”, which “Cytotoxicity MIC” value is on record?
**A.** >100 µg/mL

**Q.** Which “Cytotoxicity MIC” value does the source give for “PAMAM 4.0 EDA(NHCSNH-3,5 Ph [COOH]2)32 [BRI6195]” here?
**A.** >100 µg/mL

**Q.** For “PAMAM 4.0 EDA(NHCSNH SaccharinNa)32 [BRI6157]”, which “Cytotoxicity MIC” value is on record?
**A.** >100 µg/mL

Reference: patent US7572459B2, “Anionic or cationic dendrimer antimicrobial or antiparasitic compositions” (Starpharma Pty Ltd., priority 1998, dated 2009)
